Measured values reported in ChEMBL document CHEMBL3885881, “DrugMatrix”.

Organism: Rattus norvegicus
Assay: DrugMatrix - Regimen: Daily Repeat
Format: toxicity, organism-based, Sprague-Dawley
Design: regimen Daily Repeat, gender Male, age 6-8 weeks
Details: in vivo, po, route oral GAVAGE, vehicle .5 % CMC; for ABSOLUTE BASOPHIL / ABSOLUTE EOSINOPHIL / ABSOLUTE LYMPHOCYTE / ABSOLUTE MONOCYTE / ABSOLUTE SEGMENTED NEUTROPHIL / BASOPHIL / EOSINOPHIL / ERYTHROCYTE COUNT / HEMATOCRIT / HEMOGLOBIN / LEUKOCYTE COUNT / LYMPHOCYTE / MEAN CORPUSCULAR HEMOGLOBIN / MEAN CORPUSCULAR HEMOGLOBIN CONCENTRATION / MEAN CORPUSCULAR VOLUME / MONOCYTE / NEUTROPHIL / NUCLEATED RED BLOOD CELLS / PLATELET COUNT: tissue Blood; for ALANINE AMINOTRANSFERASE / ALBUMIN / ALKALINE PHOSPHATASE / ASPARTATE AMINOTRANSFERASE / BLOOD UREA NITROGEN / CARBON DIOXIDE / CHLORIDE / CHOLESTEROL / CREATINE PHOSPHOKINASE / CREATININE / GLUCOSE / LACTATE DEHYDROGENASE / LIPASE / PHOSPHORUS / POTASSIUM / SODIUM / TOTAL BILIRUBIN / TOTAL PROTEIN / URIC ACID: tissue Plasma
[1] = 0 mg/kg, 72 h, dose level Control, time 3 day
[2] = 0 mg/kg, 120 h, dose level Control, time 5 day
[3] = 50 mg/kg, 72 h, dose level Low, time 3 day

## CC(/C=C1\SC(=S)N(CC(=O)O)C1=O)=C\c1ccccc1
[1]
  ABSOLUTE BASOPHIL: 0 CELLS/uL
  ABSOLUTE EOSINOPHIL: 0 CELLS/uL
  ABSOLUTE LYMPHOCYTE: 12191.17 CELLS/uL
  ABSOLUTE MONOCYTE: 183.17 CELLS/uL
  ABSOLUTE SEGMENTED NEUTROPHIL: 1192.33 CELLS/uL
  BASOPHIL: 0%
  EOSINOPHIL: 0%
  ERYTHROCYTE COUNT: 5.51 x10E6/uL
  HEMATOCRIT: 35.45%
  HEMOGLOBIN: 13.82 G/DL
  LEUKOCYTE COUNT: 13.57 x10E3/uL
  LYMPHOCYTE: 89.83%
  MEAN CORPUSCULAR HEMOGLOBIN: 25.1 pg
  MEAN CORPUSCULAR HEMOGLOBIN CONCENTRATION: 38.98 G/DL
  MEAN CORPUSCULAR VOLUME: 64.42 fL
  MONOCYTE: 1.33%
  NEUTROPHIL: 8.83%
  NUCLEATED RED BLOOD CELLS: 0 /100WBC
  PLATELET COUNT: 1118.17 x10E3/uL
  ALANINE AMINOTRANSFERASE: 55 u/L
  ALBUMIN: 4.15 G/DL
  ALKALINE PHOSPHATASE: 449.5 u/L
  ASPARTATE AMINOTRANSFERASE: 112.83 u/L
  BLOOD UREA NITROGEN: 17.33 mg/dL
  CARBON DIOXIDE: 29.5 mmol/L
  CHLORIDE: 101 MEQ/L
  CHOLESTEROL: 70 mg/dL
  CREATINE PHOSPHOKINASE: 1325.83 u/L
  CREATININE: 0.18 mg/dL
  GLUCOSE: 171.5 mg/dL
  LACTATE DEHYDROGENASE: 386 u/L
  LIPASE: 10 u/L
  PHOSPHORUS: 11.57 mg/dL
  POTASSIUM: 6.21 MEQ/L
  SODIUM: 141.65 MEQ/L
  TOTAL BILIRUBIN: 0.15 mg/dL
  TOTAL PROTEIN: 5.75 G/DL
  URIC ACID: 1.28 mg/dL
[2]
  ABSOLUTE BASOPHIL: 0 CELLS/uL
  ABSOLUTE EOSINOPHIL: 138.17 CELLS/uL
  ABSOLUTE LYMPHOCYTE: 13283.17 CELLS/uL
  ABSOLUTE MONOCYTE: 303.83 CELLS/uL
  ABSOLUTE SEGMENTED NEUTROPHIL: 1308.17 CELLS/uL
  BASOPHIL: 0%
  EOSINOPHIL: 1%
  ERYTHROCYTE COUNT: 5.32 x10E6/uL
  HEMATOCRIT: 33.8%
  HEMOGLOBIN: 13.63 G/DL
  LEUKOCYTE COUNT: 15.03 x10E3/uL
  LYMPHOCYTE: 88.33%
  MEAN CORPUSCULAR HEMOGLOBIN: 25.68 pg
  MEAN CORPUSCULAR HEMOGLOBIN CONCENTRATION: 40.35 G/DL
  MEAN CORPUSCULAR VOLUME: 63.67 fL
  MONOCYTE: 1.83%
  NEUTROPHIL: 8.83%
  NUCLEATED RED BLOOD CELLS: 0 /100WBC
  PLATELET COUNT: 1097.5 x10E3/uL
  ALANINE AMINOTRANSFERASE: 54.5 u/L
  ALBUMIN: 4.27 G/DL
  ALKALINE PHOSPHATASE: 337 u/L
  ASPARTATE AMINOTRANSFERASE: 94.67 u/L
  BLOOD UREA NITROGEN: 17 mg/dL
  CARBON DIOXIDE: 28.33 mmol/L
  CHLORIDE: 101.5 MEQ/L
  CHOLESTEROL: 71.33 mg/dL
  CREATINE PHOSPHOKINASE: 628.17 u/L
  CREATININE: 0.19 mg/dL
  GLUCOSE: 177.83 mg/dL
  LACTATE DEHYDROGENASE: 500.5 u/L
  LIPASE: 9.5 u/L
  PHOSPHORUS: 12.3 mg/dL
  POTASSIUM: 5.63 MEQ/L
  SODIUM: 143.03 MEQ/L
  TOTAL BILIRUBIN: 0.2 mg/dL
  TOTAL PROTEIN: 6.02 G/DL
  URIC ACID: 1.5 mg/dL
[3]
  ABSOLUTE BASOPHIL: 0 CELLS/uL
  ABSOLUTE EOSINOPHIL: 0 CELLS/uL
  ABSOLUTE LYMPHOCYTE: 10745.33 CELLS/uL
  ABSOLUTE MONOCYTE: 122.33 CELLS/uL
  ABSOLUTE SEGMENTED NEUTROPHIL: 899 CELLS/uL
  BASOPHIL: 0%
  EOSINOPHIL: 0%
  ERYTHROCYTE COUNT: 5.12 x10E6/uL
  HEMATOCRIT: 32.47%
  HEMOGLOBIN: 13.07 G/DL
  LEUKOCYTE COUNT: 11.77 x10E3/uL
  LYMPHOCYTE: 91.33%
  MEAN CORPUSCULAR HEMOGLOBIN: 25.57 pg
  MEAN CORPUSCULAR HEMOGLOBIN CONCENTRATION: 40.23 G/DL
  MEAN CORPUSCULAR VOLUME: 63.67 fL
  MONOCYTE: 1%
  NEUTROPHIL: 7.67%
  NUCLEATED RED BLOOD CELLS: 0.33 /100WBC
  PLATELET COUNT: 1123 x10E3/uL
  ALANINE AMINOTRANSFERASE: 53.67 u/L
  ALBUMIN: 4.27 G/DL
  ALKALINE PHOSPHATASE: 336 u/L
  ASPARTATE AMINOTRANSFERASE: 85.33 u/L
  BLOOD UREA NITROGEN: 16 mg/dL
  CARBON DIOXIDE: 27.33 mmol/L
  CHLORIDE: 101.67 MEQ/L
  CHOLESTEROL: 75.67 mg/dL
  CREATINE PHOSPHOKINASE: 291.33 u/L
  CREATININE: 0.17 mg/dL
  GLUCOSE: 165.67 mg/dL
  LACTATE DEHYDROGENASE: 165.67 u/L
  LIPASE: 9.33 u/L
  PHOSPHORUS: 12.33 mg/dL
  POTASSIUM: 6.32 MEQ/L
  SODIUM: 143.7 MEQ/L
  TOTAL BILIRUBIN: 0.1 mg/dL
  TOTAL PROTEIN: 5.77 G/DL
  URIC ACID: 2.2 mg/dL
